Reference: patent publication US20240083910A1, “AMIDO-SUBSTITUTED PYRIDYL COMPOUNDS AND METHODS OF USE THEREOF FOR THE TREATMENT OF HERPESVIRUSES” (Merck Sharp & Dohme LLC, priority 2020, published 2024)

What was measured:
[1] = molecular target: T1, varicella zoster virus DNA polymerase (Varicella-zoster virus, UniProt P09252); assay: VZV polymerase assay (AlphaLISA); format: biochemical; conditions: VZV polymerase 0.4 nM; 30 min pre-incubation; 60 min at 37° C.
T1 construct: made in house; host or cells: SF21 insect cells (baculovirus vector)
T1 sequence (P09252 whole entry): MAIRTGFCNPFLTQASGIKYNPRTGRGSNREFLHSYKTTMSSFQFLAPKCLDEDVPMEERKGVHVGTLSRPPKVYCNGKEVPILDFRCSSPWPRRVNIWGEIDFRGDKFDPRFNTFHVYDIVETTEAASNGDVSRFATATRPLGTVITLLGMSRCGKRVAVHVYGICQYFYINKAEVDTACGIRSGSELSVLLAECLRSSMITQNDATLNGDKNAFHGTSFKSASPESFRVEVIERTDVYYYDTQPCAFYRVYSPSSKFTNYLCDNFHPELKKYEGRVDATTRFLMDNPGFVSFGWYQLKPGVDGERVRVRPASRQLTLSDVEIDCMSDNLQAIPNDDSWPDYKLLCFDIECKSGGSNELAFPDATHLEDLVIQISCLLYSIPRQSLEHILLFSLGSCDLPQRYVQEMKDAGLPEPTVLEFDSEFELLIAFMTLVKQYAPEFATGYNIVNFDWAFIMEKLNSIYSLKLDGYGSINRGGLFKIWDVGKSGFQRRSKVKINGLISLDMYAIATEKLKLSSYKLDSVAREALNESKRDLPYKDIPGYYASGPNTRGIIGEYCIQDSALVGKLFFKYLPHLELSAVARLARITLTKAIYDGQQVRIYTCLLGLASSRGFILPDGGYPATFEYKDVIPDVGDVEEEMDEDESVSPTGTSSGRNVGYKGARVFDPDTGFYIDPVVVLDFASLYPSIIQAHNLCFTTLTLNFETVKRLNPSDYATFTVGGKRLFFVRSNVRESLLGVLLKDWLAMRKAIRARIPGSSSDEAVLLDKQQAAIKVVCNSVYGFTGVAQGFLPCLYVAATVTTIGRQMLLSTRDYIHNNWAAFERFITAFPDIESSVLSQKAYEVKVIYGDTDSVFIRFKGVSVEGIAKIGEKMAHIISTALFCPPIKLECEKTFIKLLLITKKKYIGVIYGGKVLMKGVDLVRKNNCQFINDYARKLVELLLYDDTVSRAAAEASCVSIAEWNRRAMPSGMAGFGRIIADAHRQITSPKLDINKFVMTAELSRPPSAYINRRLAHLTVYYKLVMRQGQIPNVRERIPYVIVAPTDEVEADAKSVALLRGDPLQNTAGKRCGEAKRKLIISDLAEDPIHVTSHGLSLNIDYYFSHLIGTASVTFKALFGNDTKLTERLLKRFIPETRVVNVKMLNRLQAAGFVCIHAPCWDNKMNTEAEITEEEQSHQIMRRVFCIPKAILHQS
Experimental: Human cytomegalovirus and varicella zoster virus DNA polymerases were expressed via baculovirus vector in SF21 cells and purified. Heterodimeric nucleic acid substrate used in the herpesvirus polymerase reactions was generated by annealing a 59-mer template to a 17-mer digoxigenin-labeled primer. Polymerase (HCMV final concentration of 0.2 nM; VZV final concentration of 0.4 nM) was combined with an inhibitor compound or DMSO in assay buffer (10 mM HEPES, pH 7.5, 25 mM KCl, 25 mM NaCl, 5 mM MgCl2, 5% glycerol, 0.67 mg/ml bovine serum albumin, and 1 mM tris(2-carboxyethyl)phosphine), and this mixture was pre-incubated for 30 minutes at room temperature in 384-well microtiter plates. The polymerization reaction was initiated by the addition of template/primer substrate (final concentration: 1.6 nM), and dNTPs (final concentration: 24 nM dCTP, 24 nMdGTP, 16 nM dATP, 16 nM dTTP, and 0.8 nM biotin-dUTP). After 60 min incubation at 37° C., reactions were terminated with quench buffer (25 mM HEPES pH 7.5, 100 mM NaCl, 0.25% Tween-20, 12 mM EDTA, and 1 mg/ml bovine serum albumin). Incorporation of biotinylated UTP was detected with 2.5-5 ug/ml anti-DIG AlphaLISA acceptor beads and 5-10 ug/ml streptavidin AlphaLISA donor beads (PerkinElmer). Compound effects were normalized to the window defined by the controls (DMSO only and pre-quenched wells) and were fit using a 4-parameter algorithm to report an IC50.

HCMV Strain AD169 = assay: Viral qPCR assay, HCMV; format: cell-based, Human cytomegalovirus; conditions: Human betaherpesvirus 5, AD169, MRC5, 72 h, MRC-5 cells, 0.05-0.1 pfu/cell, growth media or 50% fetal bovine serum, viral genome copies by qPCR, read-out: CMV Cell (EC50)
Procedure, shortened: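 HCMV AD169 at 0.05-0.1 pfu/cell infected MRC-5 cells, added to 10-point 3-fold compound dilutions, in growth medium or medium with 50% FBS; ~72 h at 37°C. Viral genome copies by TaqMan qPCR against plasmid standard curve, normalized to DMSO and uninfected controls; EC50 from 4-parameter fit.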

HSV-1 Strain F = assay: Viral qPCR assay, HSV-1; format: cell-based, Herpes Simplex Virus type 1; conditions: Human alphaherpesvirus 1, 72 h, Vero or MRC5 cells, 0.0005-0.004 pfu/cell, growth medium, viral genome copies by qPCR, read-out: HSV1 Cell (EC50)
Procedure, shortened: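 HSV-1 strain F at 0.0005–0.004 pfu/cell infected Vero or MRC5 cells, which were added to a 10-point 3-fold compound dilution and cultured ~72 h at 37 °C. Viral genomes in the lysates were quantified by TaqMan qPCR against a plasmid standard curve, in some runs normalized to cellular PPIA. EC50 came from a 4-parameter fit of % effect.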

[2] = molecular target: T2, Human cytomegalovirus DNA polymerase (Human cytomegalovirus, UniProt P08546); assay: CMV polymerase assay (AlphaLISA); format: biochemical; conditions: HCMV polymerase 0.2 nM; 30 min pre-incubation; 60 min at 37° C.; read-out: CMV (IC50)
T2 construct: made in house; host or cells: SF21 insect cells (baculovirus vector)
T2 sequence (P08546 whole entry): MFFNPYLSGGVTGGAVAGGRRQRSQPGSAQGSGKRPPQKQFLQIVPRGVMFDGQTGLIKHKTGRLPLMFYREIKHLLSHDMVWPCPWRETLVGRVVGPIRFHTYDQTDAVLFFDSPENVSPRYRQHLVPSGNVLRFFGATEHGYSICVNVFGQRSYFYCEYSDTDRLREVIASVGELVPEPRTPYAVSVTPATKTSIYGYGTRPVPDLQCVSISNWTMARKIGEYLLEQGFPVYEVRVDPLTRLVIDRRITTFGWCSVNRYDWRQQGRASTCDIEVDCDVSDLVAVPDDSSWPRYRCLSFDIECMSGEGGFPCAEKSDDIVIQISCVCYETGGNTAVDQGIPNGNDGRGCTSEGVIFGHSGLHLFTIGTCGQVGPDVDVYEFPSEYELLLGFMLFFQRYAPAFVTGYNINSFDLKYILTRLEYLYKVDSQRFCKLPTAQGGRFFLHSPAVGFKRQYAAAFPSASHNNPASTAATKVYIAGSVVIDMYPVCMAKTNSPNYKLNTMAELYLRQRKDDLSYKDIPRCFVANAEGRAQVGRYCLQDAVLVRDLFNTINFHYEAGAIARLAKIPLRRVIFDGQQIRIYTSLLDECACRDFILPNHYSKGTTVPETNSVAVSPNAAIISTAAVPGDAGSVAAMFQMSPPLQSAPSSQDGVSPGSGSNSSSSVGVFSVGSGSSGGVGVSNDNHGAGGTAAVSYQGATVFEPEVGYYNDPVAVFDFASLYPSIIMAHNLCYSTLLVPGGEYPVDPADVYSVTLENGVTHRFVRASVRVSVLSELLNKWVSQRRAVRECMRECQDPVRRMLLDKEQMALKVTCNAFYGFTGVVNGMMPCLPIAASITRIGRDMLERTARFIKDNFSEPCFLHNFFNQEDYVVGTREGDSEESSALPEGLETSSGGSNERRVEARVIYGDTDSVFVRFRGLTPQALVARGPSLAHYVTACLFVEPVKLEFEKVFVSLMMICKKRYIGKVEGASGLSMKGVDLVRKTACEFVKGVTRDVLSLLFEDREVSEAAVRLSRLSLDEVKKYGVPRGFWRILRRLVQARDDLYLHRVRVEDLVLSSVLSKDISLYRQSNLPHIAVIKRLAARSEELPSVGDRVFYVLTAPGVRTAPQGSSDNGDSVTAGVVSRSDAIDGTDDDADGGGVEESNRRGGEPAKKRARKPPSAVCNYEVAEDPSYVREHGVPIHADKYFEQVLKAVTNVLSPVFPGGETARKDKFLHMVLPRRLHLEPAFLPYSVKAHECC
Procedure, shortened: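 Baculovirus-expressed polymerase (HCMV 0.2 nM, VZV 0.4 nM) preincubated 30 min with compound, then reacted 60 min at 37 °C with 1.6 nM DIG-primer/59-mer template and low-nM dNTPs including 0.8 nM biotin-dUTP. Incorporation detected by AlphaLISA; IC50 from a 4-parameter fit normalized to DMSO and pre-quenched controls.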

VZV = assay: Viral qPCR assay, VZV; format: cell-based, varicella zoster virus; conditions: Human alphaherpesvirus 3, 72 h, MeWo or MRC5 cells, 0.04-0.1 pfu/cell, growth medium, viral genome copies by qPCR
Procedure, shortened: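 VZV strain Street at 0.04-0.1 pfu/cell infected MeWo or MRC5 cells added to 10-point, 3-fold compound dilutions; ~72 h at 37° C. Viral genome copies by TaqMan qPCR against plasmid standard curve, sometimes normalised to PPIA, scaled between uninfected and DMSO-infected controls; EC50 from 4-parameter fit.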

Compound	IC50 [1] [nM]	EC50 (HCMV Strain AD169) [nM]	EC50 (HSV-1 Strain F) [nM]	IC50 [2] [nM]	EC50 (VZV) [nM]
COc1nc(N2CC(F)(F)C2)c(O[C@H]2CCN3C(=O)OC[C@@H]3C2)cc1C(=O)NCc1ccc(Cl)cc1 [Compound 65]	5.28	376	877	16.4	758
COc1nc(N2CC(C(C)(C)O)C2)c(O[C@H]2CCN3C(=O)OC[C@@H]3C2)cc1C(=O)NCc1ccc(Cl)cc1 [Compound 70]	14.5	194	278	15	409
COc1nc(-c2nc(C)no2)c(O[C@H]2CCN3C(=O)OC[C@@H]3C2)cc1C(=O)NCc1ccc(Cl)cc1 [Compound 82]	0.0532	83.5	73.9	8.36	103
COc1nc(-c2nnc(C3CC3)s2)c(O[C@H]2CCN3C(=O)OC[C@@H]3C2)cc1C(=O)NCc1ccc(Cl)cc1 [Compound 83]	6.05	153	83.5	11.7	110
O=C(NCc1ccc(Cl)cc1)c1cc(O[C@H]2CCN3C(=O)OC[C@@H]3C2)c(-c2cnn(C(F)F)c2)nc1OCCO [Compound 84]	0.627	116	113	3.33	140
COCCOc1nc(-c2cnn(C(F)F)c2)c(O[C@H]2CCN3C(=O)OC[C@@H]3C2)cc1C(=O)NCc1ccc(Cl)cc1 [Compound 85]	1.47	187	143	15.6	342
CC(C)(O)COc1nc(-c2cnn(C(F)F)c2)c(O[C@H]2CCN3C(=O)OC[C@@H]3C2)cc1C(=O)NCc1ccc(Cl)cc1 [Compound 86]	2.96	213	130	8.84	232
COc1nc(Br)c(O[C@H]2CCN3C(=O)OC[C@@H]3C2)cc1C(=O)NCc1ccc(Cl)cc1 [Int-3]	21.3	822	832	55.9	651
